Article PMC13386468 (ACS Chemical Biology, 2025)
Like-named read-outs stand apart in the source and are kept apart here.

How the values were obtained:
[1] = target: T1, calcium-dependent protein kinase 1 (PfCDPK1, PF3D7_0217500) (Plasmodium falciparum, UniProt P62344); assay: Kinobead competitive pulldown from asexual blood stage parasite lysate, mass spectrometry; assay type: biochemical
T1 construct: gene CDPK1

[2] = target: Aurora-related kinase 1 (PfArk1, PF3D7_0605300) (Plasmodium falciparum, UniProt C6KSQ1); assay: KinaseSeeker competition binding assay with recombinant kinase; also Kinobead competition (Kd app […]) and conditional knockdown sensitization ([…])
[3] = target: T2, cAMP-dependent protein kinase catalytic subunit (PfPKAc, PF3D7_0934800) (Plasmodium falciparum, UniProt Q7K6A0); assay: Kinobead competitive pulldown from asexual blood stage parasite lysate, mass spectrometry; assay type: biochemical
T2 construct: with PfPKAr (PF3D7_1223100)
T2 sequence (Q7K6A0 1-342): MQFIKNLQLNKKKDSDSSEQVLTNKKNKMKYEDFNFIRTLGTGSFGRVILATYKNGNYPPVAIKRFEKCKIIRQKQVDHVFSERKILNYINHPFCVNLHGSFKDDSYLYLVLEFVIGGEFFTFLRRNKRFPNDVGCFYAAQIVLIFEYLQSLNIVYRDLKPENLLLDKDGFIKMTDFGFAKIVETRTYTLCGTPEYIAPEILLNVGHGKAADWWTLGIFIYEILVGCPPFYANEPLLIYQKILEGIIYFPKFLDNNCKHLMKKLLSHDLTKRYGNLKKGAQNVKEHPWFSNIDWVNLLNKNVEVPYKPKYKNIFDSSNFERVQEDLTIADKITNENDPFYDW
T2 sequence (Q7KQK0 1-441 partner): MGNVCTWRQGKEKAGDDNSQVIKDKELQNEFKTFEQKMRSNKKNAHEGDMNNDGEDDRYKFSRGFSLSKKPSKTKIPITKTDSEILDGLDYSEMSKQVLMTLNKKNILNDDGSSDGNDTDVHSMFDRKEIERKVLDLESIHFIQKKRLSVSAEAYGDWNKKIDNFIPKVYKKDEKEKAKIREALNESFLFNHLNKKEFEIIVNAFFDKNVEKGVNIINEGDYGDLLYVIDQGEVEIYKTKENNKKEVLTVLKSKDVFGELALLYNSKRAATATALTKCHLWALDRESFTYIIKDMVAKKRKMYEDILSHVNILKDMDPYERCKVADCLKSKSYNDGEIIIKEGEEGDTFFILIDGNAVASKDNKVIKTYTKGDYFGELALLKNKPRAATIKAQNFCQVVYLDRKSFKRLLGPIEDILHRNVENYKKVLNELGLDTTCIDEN

[4] = target: T3, glycogen synthase kinase 3 β (PfGSK3β, PF3D7_0312400) (Plasmodium falciparum, UniProt O77344); assay: KinaseSeeker competition binding assay with recombinant kinase; also Kinobead competition (IC50 […]); details: read-out: IC50 value ± SEM or SD ^c
T3 sequence (O77344 1-440): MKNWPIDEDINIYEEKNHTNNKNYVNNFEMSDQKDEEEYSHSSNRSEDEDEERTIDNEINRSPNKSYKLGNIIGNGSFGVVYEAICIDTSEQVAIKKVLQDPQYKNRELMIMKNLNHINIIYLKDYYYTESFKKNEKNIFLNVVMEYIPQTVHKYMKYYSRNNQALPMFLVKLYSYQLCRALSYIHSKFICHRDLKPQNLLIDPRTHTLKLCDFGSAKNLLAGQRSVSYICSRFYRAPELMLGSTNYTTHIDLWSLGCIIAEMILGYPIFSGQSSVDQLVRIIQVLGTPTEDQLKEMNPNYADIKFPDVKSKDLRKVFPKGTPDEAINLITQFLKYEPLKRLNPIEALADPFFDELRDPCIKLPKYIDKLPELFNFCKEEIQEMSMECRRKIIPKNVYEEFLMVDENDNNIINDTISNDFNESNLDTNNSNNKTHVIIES

[5] = target: T4, 3-phosphoinositide-dependent protein kinase 1 (PfPDK1, PF3D7_1121900) (Plasmodium falciparum, UniProt Q8IIE7); assay: Kinobead competitive pulldown from asexual blood stage parasite lysate, mass spectrometry; assay type: biochemical
T4 sequence (Q8IIE7 1-525): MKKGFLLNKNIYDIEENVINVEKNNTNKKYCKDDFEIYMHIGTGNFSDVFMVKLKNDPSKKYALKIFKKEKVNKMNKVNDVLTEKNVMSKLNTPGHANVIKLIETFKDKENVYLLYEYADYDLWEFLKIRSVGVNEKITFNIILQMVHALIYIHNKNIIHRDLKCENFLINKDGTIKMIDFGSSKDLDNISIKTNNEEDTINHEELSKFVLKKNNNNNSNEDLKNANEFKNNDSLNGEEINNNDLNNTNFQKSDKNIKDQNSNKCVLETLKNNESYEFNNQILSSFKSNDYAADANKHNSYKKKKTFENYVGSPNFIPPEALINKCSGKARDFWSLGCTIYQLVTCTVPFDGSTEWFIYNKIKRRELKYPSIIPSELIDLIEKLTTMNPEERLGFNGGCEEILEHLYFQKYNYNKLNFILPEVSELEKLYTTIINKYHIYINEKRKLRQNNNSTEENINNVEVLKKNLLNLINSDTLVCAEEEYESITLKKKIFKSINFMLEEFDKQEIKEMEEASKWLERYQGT

[6] = target: T5, Serine/threonine protein kinase ; PF3D7_0605300 ; C6KSQ1 (Plasmodium falciparum, UniProt C6KSQ1); assay: biochemical; set-up: species or system Plasmodium falciparum asexual blood stage lysate; Kinobeads competitive pulldown from asexual blood stage P. falciparum extract, TMT quantitative mass spectrometry, apparent Kd; details: Kdapp, apparent Kd, Kinobeads competition
T5 sequence (C6KSQ1 1-353): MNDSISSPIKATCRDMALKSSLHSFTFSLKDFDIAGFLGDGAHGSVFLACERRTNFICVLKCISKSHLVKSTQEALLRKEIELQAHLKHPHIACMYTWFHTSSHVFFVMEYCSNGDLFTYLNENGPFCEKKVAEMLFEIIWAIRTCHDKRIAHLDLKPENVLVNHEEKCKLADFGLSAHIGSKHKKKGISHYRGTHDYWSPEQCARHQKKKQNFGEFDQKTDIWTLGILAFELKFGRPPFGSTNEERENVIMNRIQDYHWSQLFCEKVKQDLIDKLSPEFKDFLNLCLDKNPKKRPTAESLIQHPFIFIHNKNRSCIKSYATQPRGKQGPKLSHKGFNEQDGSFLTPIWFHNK
Source text: Eluted kinases are quantified in a dose-dependent manner via mass spectrometry. […] Data and error bars represent the mean and SD from two independent experiments. […] Data are plotted as the mean with error bars representing the SEM where N,n = 3,2.

[7] = test system: T6, Plasmodium falciparum PfDd2; assay: microbe, parasite or virus in culture; set-up: species or system P. falciparum asexual blood stages; asexual blood stage growth inhibition, pLDH read-out; details: read-out: Mean IC50 ± SEM (µM), pLDH
T6 construct: Dd2
Procedure: (§1) Parasite growth inhibition was calculated relative to untreated controls, and IC50 values were determined by fitting dose-response curves. Each assay plate included appropriate growth, vehicle, and positive control wells.

[8] = test system: T7, Plasmodium falciparum PfCam3.II; assay: microbe, parasite or virus in culture; set-up: species or system P. falciparum asexual blood stages; asexual blood stage growth inhibition, SYBR Green I read-out; details: read-out: Mean IC50 ± SEM (µM), SYBR Green I
T7 construct: Cam3.II
Procedure: as §1

[9] = test system: T8, Plasmodium falciparum PfNF54 (WT); assay: microbe, parasite or virus in culture; set-up: species or system P. falciparum asexual blood stages; asexual blood stage growth inhibition, SYBR Green I read-out; details: read-out: Mean IC50 ± SEM (µM), SYBR Green I
T8 construct: NF54
Procedure: as §1

[10] = test system: T9, Plasmodium falciparum PfRF7; assay: microbe, parasite or virus in culture; set-up: species or system P. falciparum asexual blood stages; asexual blood stage growth inhibition, SYBR Green I read-out; details: read-out: Mean IC50 ± SEM (µM), SYBR Green I
T9 construct: RF7
Procedure: as §1

in vitro = assay: in vitro; set-up: HepG2 liver cell cytotoxicity; details: human, hepg2 cells; read-out: Liver cytotoxicity HepG2 IC50
Source text: (§2) Moderate activity was also observed against immature and late-stage gametocytes, in the low micromolar range, as well as against liver stages, in the submicromolar range (Table and Supplementary Table S3).

[11] = test system: T10, Plasmodium berghei Liver-stage PbLuc; assay: microbe, parasite or virus in culture; set-up: liver-stage Plasmodium berghei luciferase inhibition assay
T10 construct: PbLuc (luciferase reporter)
Source text: as §2

[12] = test system: T8, Plasmodium falciparum PfNF54 (WT); assay: microbe, parasite or virus in culture; set-up: species or system P. falciparum asexual blood stages; asexual blood stage growth inhibition, modified [3H]-hypoxanthine incorporation; details: read-out: PfNF54 control (–Shield-1) IC50 (nM)

T1 sequence (P62344 2-524): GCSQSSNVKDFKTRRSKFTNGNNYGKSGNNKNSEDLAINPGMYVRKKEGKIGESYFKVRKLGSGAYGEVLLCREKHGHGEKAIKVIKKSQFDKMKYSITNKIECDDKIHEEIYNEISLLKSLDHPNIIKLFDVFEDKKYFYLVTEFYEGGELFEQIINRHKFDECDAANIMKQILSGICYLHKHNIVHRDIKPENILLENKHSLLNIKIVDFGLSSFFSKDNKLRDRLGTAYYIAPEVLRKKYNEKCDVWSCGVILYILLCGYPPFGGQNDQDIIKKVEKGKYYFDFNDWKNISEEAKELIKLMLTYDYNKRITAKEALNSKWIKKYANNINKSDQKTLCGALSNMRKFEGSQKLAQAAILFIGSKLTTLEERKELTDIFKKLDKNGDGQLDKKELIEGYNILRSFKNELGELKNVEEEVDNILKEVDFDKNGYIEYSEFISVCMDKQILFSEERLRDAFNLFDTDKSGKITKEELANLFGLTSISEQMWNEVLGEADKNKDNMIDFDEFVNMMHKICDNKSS

In the case of `O=c1[nH]c2ccc(Cl)cc2c(N[C@@H]2CN3CCC2CC3)c1-c1nc2ccccc2[nH]1` [CHIR-124], the Kd [1] is reported as 40 nM, the IC50 [2] is reported as 380 ± 70 nM and the Kd [3] is reported as 610 nM. It also gave an IC50 [4] of 200 ± 20 nM, a Kd [5] of 100 nM and a Kd ([6]; Experiment ID=X048537) of 180 nM. It also gave a Kd ([6]; Experiment ID=X048538) of 156 nM, an IC50 [7] of 0.44 ± 0.05 µM and an IC50 [8] of 0.016 ± 0.002 µM. For the same compound, the IC50 [9] was 0.033 ± 0.002 µM, the IC50 [10] was 0.01 ± 0.001 µM and the CC50 (in vitro) was 4300 nM. It also gave an IC50 [11] of 310 nM and an IC50 [12] of 36 ± 7 nM.
